US10421761B2, “Compounds for kinase modulation, and indications therefor” (Plexxikon Inc., priority 2013, dated 2019)

Legend:
BRAF V600E = target: T1, BRAF V600E (Homo sapiens, UniProt P15056, V600E); test: BRAF V600E biochemical kinase activity assay (AlphaScreen, biotin-MEK1 substrate); conditions: BRAF V600E biochemical inhibitory activity
T1 construct: purchased Upstate Biotechnology

B9 (HRAS Q61L) cell line = test: B9 P-ERK cell activation assay (AlphaScreen); type: cell-based, mouse; conditions: Mus musculus; P-ERK cell activation, B9; numeric bounds; read-out: Cell activity (EC50 μM) B9_pERK
Procedure, shortened: (§1)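 Phospho-ERK1/2 (Thr202/Tyr204) in lysates quantified via AlphaScreen bead proximity, after one-hour, 37° C. exposure of cells to eight compound concentrations. Lines: IPC-298 human melanoma with activated NRAS; B9 mouse squamous carcinoma with activated HRAS.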

[1] = tested on: IPC-298 (NRAS Q61L) cell line; test: IPC-298 P-ERK cell activation assay (AlphaScreen); type: cell-based, human; conditions: Homo sapiens; P-ERK cell activation, IPC-298; numeric bounds; read-out: Cell activity (EC50 μM) IPC-298_P-ERK
Procedure, shortened: as §1

[2] = tested on: A375 (BRAF V600E) cell line; test: A375 P-ERK inhibition assay (AlphaScreen); type: cell-based, human; conditions: Homo sapiens, A-375; A375_P-ERK
Procedure, shortened: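 Phospho-ERK1/2 (Thr202/Tyr204) detected in lysates by AlphaScreen proximity signal, pairing a total-ERK antibody with a phospho-specific antibody. Before lysis, A375 cells received compound as an 8-point titration for one hour at 37° C.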

T1 sequence (P15056 whole entry V600E): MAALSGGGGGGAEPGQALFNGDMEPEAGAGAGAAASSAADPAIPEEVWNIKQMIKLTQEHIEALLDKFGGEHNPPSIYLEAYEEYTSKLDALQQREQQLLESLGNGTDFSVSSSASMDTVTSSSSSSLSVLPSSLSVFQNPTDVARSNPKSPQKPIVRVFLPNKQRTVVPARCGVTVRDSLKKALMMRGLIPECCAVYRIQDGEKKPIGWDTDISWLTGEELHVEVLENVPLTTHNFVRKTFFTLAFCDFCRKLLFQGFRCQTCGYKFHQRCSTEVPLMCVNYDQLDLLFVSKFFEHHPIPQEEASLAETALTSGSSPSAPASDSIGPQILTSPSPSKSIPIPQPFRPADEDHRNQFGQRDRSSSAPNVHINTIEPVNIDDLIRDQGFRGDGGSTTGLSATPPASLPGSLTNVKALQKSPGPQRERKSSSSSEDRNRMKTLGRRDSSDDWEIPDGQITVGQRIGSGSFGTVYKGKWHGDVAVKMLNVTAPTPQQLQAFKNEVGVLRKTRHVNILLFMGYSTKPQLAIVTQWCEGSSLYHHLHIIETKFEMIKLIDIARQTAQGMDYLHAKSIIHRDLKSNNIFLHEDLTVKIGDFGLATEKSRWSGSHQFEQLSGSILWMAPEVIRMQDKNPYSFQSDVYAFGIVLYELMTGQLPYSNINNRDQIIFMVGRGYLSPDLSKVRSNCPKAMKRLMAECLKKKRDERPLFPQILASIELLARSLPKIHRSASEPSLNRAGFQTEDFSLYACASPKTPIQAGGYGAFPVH

Structure (SMILES) | IC50 (BRAF V600E) [µM] | EC50 (B9 (HRAS Q61L) cell line) [µM] | EC50 [1] [µM] | IC50 [2] [µM]
CN(C)S(=O)(=O)Nc1cccc(-c2nc(C(C)(C)C)sc2-c2ccnc(N)n2)c1F [P-2093, 5-(2-aminopyrimidin-4-yl)-2-tert-butyl-4-[3-(dimethylsulfamoylamino)-2-fluoro-phenyl]thiazole] | 0.0001 to 1 | > 1 | > 1 | 0.0001 to 1
CCN(C)S(=O)(=O)Nc1cccc(C(=O)c2c[nH]c3ncnc(NCCCOC)c23)c1F [P-2115, 5-[3-[[ethyl(methyl)sulfamoyl]amino]-2-fluoro-benzoyl]-4-(3-methoxypropylamino)-7H-pyrrolo[2,3-d]pyrimidine] | 0.0001 to 1 | > 10 | > 10 | 0.0001 to 1
O=C(c1cccc(NS(=O)(=O)N2CCCC2)c1F)c1c[nH]c2ncnc(NC3CCOCC3)c12 [P-2083, N-[2-fluoro-3-[4-(tetrahydropyran-4-ylamino)-7H-pyrrolo[2,3-d]pyrimidine-5-carbonyl]phenyl]pyrrolidine-1-sulfonamide] | 0.0001 to 1 | > 10 | > 10 | 0.0001 to 1
COc1ccnc2[nH]cc(C(=O)c3c(F)ccc(NS(=O)(=O)N(C)C)c3F)c12 [Compound P-2002, 3-[3-(dimethylsulfamoylamino)-2,6-difluoro-benzoyl]-4-methoxy-1H-pyrrolo[2,3-b]pyridine] | 0.0001 to 1 | > 10 | > 10 | 0.0001 to 1
COc1ccnc2[nH]cc(C(=O)c3c(F)ccc(NS(=O)(=O)N4CCCC4)c3F)c12 [Compound P-2003, N-[2,4-difluoro-3-(4-methoxy-1H-pyrrolo[2,3-b]pyridine-3-carbonyl)phenyl]pyrrolidine-1-sulfonamide] | 0.0001 to 1 | > 10 | > 10 | 0.0001 to 1
CCN(C)S(=O)(=O)Nc1ccc(F)c(C(=O)c2c[nH]c3ncnc(NCC4CC4)c23)c1F [P-2061, 4-(cyclopropylmethylamino)-5-[3-[[ethyl(methyl)sulfamoyl]amino]-2,6-difluoro-benzoyl]-7H-pyrrolo[2,3-d]pyrimidine] | 0.0001 to 1 | > 10 | > 10 | 0.0001 to 1
CC(=O)Nc1ccc(NC(=O)c2c(F)ccc(NS(=O)(=O)N3CCCC3)c2F)cn1 [P-2036, N-(6-acetamido-3-pyridyl)-2,6-difluoro-3-(pyrrolidin-1-ylsulfonylamino)benzamide] | 1 to 10 | > 10 | > 10 | 1 to 10
CCN(C)S(=O)(=O)Nc1ccc(F)c(C(=O)c2c[nH]c3ncnc(NCCOC)c23)c1F [P-2100, 5-[3-[[ethyl(methyl)sulfamoyl]amino]-2,6-difluoro-benzoyl]-4-(2-methoxyethylamino)-7H-pyrrolo[2,3-d]pyrimidine] | 0.0001 to 1 | > 10 | > 10 | 0.0001 to 1
CCN(C)S(=O)(=O)Nc1cccc(-c2nc(C(C)(C)C)sc2-c2ccnc(Cl)n2)c1F [P-2085, 2-tert-butyl-5-(2-chloropyrimidin-4-yl)-4-[3-[[ethyl(methyl)sulfamoyl]amino]-2-fluoro-phenyl]thiazole] | 1 to 10 | > 10 | > 10 | 0.0001 to 1
CCCNc1ncnc2[nH]cc(C(=O)c3c(F)ccc(NS(=O)(=O)N(C)CC)c3F)c12 [P-2099, 5-[3-[[ethyl(methyl)sulfamoyl]amino]-2,6-difluoro-benzoyl]-4-(propylamino)-7H-pyrrolo[2,3-d]pyrimidine] | 0.0001 to 1 | > 10 | > 10 | 0.0001 to 1
O=C(c1c(F)ccc(NS(=O)(=O)C2CCCC2)c1F)c1c[nH]c2nccc(Cl)c12 [P-2015, N-[3-(4-chloro-1H-pyrrolo[2,3-b]pyridine-3-carbonyl)-2,4-difluoro-phenyl]cyclopentanesulfonamide] | 0.0001 to 1 | > 10 | > 10 | > 10
O=C(c1cccc(NS(=O)(=O)N2CCCC2)c1F)c1c[nH]c2ncnc(NCCCN3CCOCC3)c12 [P-2111, N-[2-fluoro-3-[4-(3-morpholinopropylamino)-7H-pyrrolo[2,3-d]pyrimidine-5-carbonyl]phenyl]pyrrolidine-1-sulfonamide] | 0.0001 to 1 | > 10 | > 10 | 0.0001 to 1
